Test results reported in ChEMBL document CHEMBL5154879, “Induction of Genes Implicated in Stress Response and Autophagy by a Novel Quinolin-8-yl-nicotinamide QN523 in Pancreatic Cancer” (J Med Chem, 2022).
Activity calls are given as the source filed them. No cut-off for these calls is given here.

What was measured:
BXPC-3 = assay: Inhibition of colony formation in human BXPC-3 cells at 1 uM incubated for 10 to 14 days by crystal violet staining based assay; type: functional, cell-based; details: time 10-14 day
[1] = Downregulation of SEMA4C gene expression in human MIA PaCa-2 cells assessed as fold change in SEMA4C expression at 1 uM incubated for 24 hrs by Bru-seq analysis relative to control; type: functional
[2] = Upregulation of DDIT3 gene expression in human MIA PaCa-2 cells assessed as fold change in DDIT3 expression at 1 uM incubated for 24 hrs by Bru-seq analysis relative to control; type: functional
MIA PaCa-2 [3] = assay: Cytotoxicity against human MIA PaCa-2 cells assessed as inhibition of cell growth incubated for 72 hrs by MTT assay; type: functional, cell-based; details: MIA PaCa-2, 72 h
MIA PaCa-2 [4] = assay: Induction of apoptosis in human MIA PaCa-2 cells assessed as necrotic cells at 0.5 uM incubated for 48 hrs by Annexin V-FITC/PI staining based flow cytometry analysis (reference value: 1.07%); type: functional
[5] = Downregulation of SMAD6 gene expression in human MIA PaCa-2 cells assessed as fold change in SMAD6 expression at 1 uM incubated for 24 hrs by Bru-seq analysis relative to control; type: functional
[6] = Upregulation of FAM129A gene expression in human MIA PaCa-2 cells assessed as fold change in FAM129A expression at 1 uM incubated for 24 hrs by Bru-seq analysis relative to control; type: functional
MIA PaCa-2 [7] = assay: Upregulation of apoptosis transcription gene expression in human MIA PaCa-2 cells; type: functional, cell-based
Hep 3B2 = assay: Antiproliferative activity against human Hep3B cells assessed as inhibition of cell growth incubated for 72 hrs by MTT assay; type: functional, cell-based
MIA PaCa-2 [8] = assay: Induction of cell cycle arrest in human MIA PaCa-2 cells assessed as accumulation of cells at S phase at 0.1 uM incubated for 48 hrs by RNase/propidium iodide staining based flow cytometry analysis (Rvb =26.9 %); type: functional
[9] = Toxicity in NOD/SCID mouse xenografted with human MIA PaCa- 2 cells assessed as morphological changes in liver at 10 to 20 mg/kg, ip administered five times a week for 44 days by H and E staining based inverted microscopic analysis; type: organism-based; details: in vivo, 1056 h, dose 10-20 mg/kg, time 44 day
MIA PaCa-2 [10] = assay: Induction of cell cycle arrest in human MIA PaCa-2 cells assessed as accumulation of cells in G0/G1 phase at 0.5 uM incubated for 48 hrs by RNase/propidium iodide staining based flow cytometry analysis (reference value: 70.4%); type: functional
MIA PaCa-2 [11] = assay: Induction of apoptosis in human MIA PaCa-2 cells assessed as live cells at 0.1 uM incubated for 48 hrs by Annexin V-FITC/PI staining based flow cytometry analysis (reference value: 96.3%); type: functional
[12] = Upregulation of ATF3 gene expression in human MIA PaCa-2 cells assessed as fold change in ATF3 expression at 1 uM incubated for 24 hrs by Bru-seq analysis relative to control; type: functional
MIA PaCa-2 [13] = assay: Upregulation of ER- related gene expression in human MIA PaCa-2 cells; type: functional, cell-based
[14] = Downregulation of PLKI gene expression in human MIA PaCa-2 cells assessed as fold change in PLKI expression at 1 uM incubated for 24 hrs by Bru-seq analysis relative to control; type: functional
MIA PaCa-2 [15] = assay: Induction of apoptosis in human MIA PaCa-2 cells assessed as necrotic cells at 0.5 uM incubated for 24 hrs by Annexin V-FITC/PI staining based flow cytometry analysis (reference value: 2.7%); type: functional
[16] = Downregulation of INCENP gene expression in human MIA PaCa-2 cells assessed as fold change in INCENP expression at 1 uM incubated for 24 hrs by Bru-seq analysis relative to control; type: functional
MIA PaCa-2 [17] = assay: Induction of ER stress pathway in human MIA PaCa-2 cells by ingenuity pathway analysis; type: functional, cell-based
[18] = Cytotoxicity against human HFF-1 cells assessed as inhibition of cell growth incubated for 72 hrs by MTT assay; type: toxicity, cell-based
[19] = Toxicity in NOD/SCID mouse xenografted with human MIA PaCa- 2 cells assessed as morphological changes in kidney at 10 to 20 mg/kg, ip administered five times a week for 44 days by H and E staining based inverted microscopic analysis; type: organism-based; details: in vivo, 1056 h, dose 10-20 mg/kg, time 44 day
[20] = Downregulation of TRAF7 gene expression in human MIA PaCa-2 cells assessed as fold change in TRAF7 expression at 1 uM incubated for 24 hrs by Bru-seq analysis relative to control; type: functional
[21] = Downregulation of ANKDDIA gene expression in human MIA PaCa-2 cells assessed as fold change in ANKDDIA expression at 1 uM incubated for 24 hrs by Bru-seq analysis relative to control; type: functional
MIA PaCa-2 [22] = assay: Downregulation of cell cycle gene expression in human MIA PaCa-2 cells; type: functional, cell-based
[23] = Toxicity in NOD/SCID mouse xenografted with human MIA PaCa- 2 cells assessed as morphological changes in heart at 10 to 20 mg/kg, ip administered five times a week for 44 days by H and E staining based inverted microscopic analysis; type: organism-based; details: in vivo, 1056 h, dose 10-20 mg/kg, time 44 day
SNU-449 = assay: Antiproliferative activity against human SNU-449 cells assessed as inhibition of cell growth incubated for 72 hrs by MTT assay; type: functional, cell-based; details: SNU-449, 72 h
HepG2 = assay: Antiproliferative activity against human HepG2 cells assessed as inhibition of cell growth incubated for 72 hrs by MTT assay; type: functional, cell-based; details: HepG2, 72 h

With `O=C(Nc1cccc2cccnc12)c1cnccn1` the inhibition (BXPC-3) was “Active”, the “fold change (FC)” value [1] was 0.39 and the “fold change (FC)” value [2] was 11. The IC50 (MIA PaCa-2 [3]) was 110 nM, the Activity (MIA PaCa-2 [4]) was 1.2% and the “fold change (FC)” value [5] was 0.44. For the same compound, the “fold change (FC)” value [6] was 16.8, the Activity (MIA PaCa-2 [7]) was “Active” and the IC50 (Hep 3B2) was 210 nM. For the same compound, the Activity (MIA PaCa-2 [8]) was 29.4%, the Activity [9] was “Non-Toxic” and the Activity (MIA PaCa-2 [10]) was 31.2%. For the same compound, the Activity (MIA PaCa-2 [11]) was 92%, the “fold change (FC)” value [12] was 22 and the Activity (MIA PaCa-2 [13]) was “Active”. The “fold change (FC)” value [14] was 0.47, the Activity (MIA PaCa-2 [15]) was 1.4% and the “fold change (FC)” value [16] was 0.46. For the same compound, the Activity (MIA PaCa-2 [17]) was “Active”, the IC50 at 72 h [18] was over 30 µM and the Activity [19] was “Non-Toxic”. The “fold change (FC)” value [20] was 0.39, the “fold change (FC)” value [21] was 0.45 and the Activity (MIA PaCa-2 [22]) was “Active”. The Activity [23] was “Non-Toxic”, the IC50 (SNU-449) was 400 nM and the IC50 (HepG2) was 500 nM.
